According to patent publication EP0326579B1, “IMPROVEMENT OF THE BIOCOMPATIBILITY OF SOLID SURFACES” (BIO-METRIC SYSTEMS, INC., priority 1986, dated 1988):

Experiments:
Bovine endothelial cells [1] = test: Attachment of endothelial cells to modified plastic surfaces (viable cell counts, trypan blue); format: cell-based; conditions: treated polyvinyl chloride surface; number of viable cells attached to each piece
Protocol: B. Attachment of Bovine Endothelial Cells to Modified Plastic Surfaces. Bovine endothelial cells were collected from fetal animals 8-24" in length. Cornea, aorta and umbilical endothelial cells were harvested aseptically. Cells were grown in a 5% CO₂ incubator at 37°C in a known high glucose cell growth medium such as Dulbecco's modified Eagle's medium (described in R. Dulbecco and G. Freeman, Virology, Vol. 8:396 (1959) and J. D. Smith, G. Freeman, M. Vogt and R. Dulbecco, Virology, Vol. 12:185-196 (1960)) with 25mmole HEPES buffer, 10% bovine calf serum, and 2.5 micrograms amphotericin B/ml (the "growth media"). Once the plates, tubes or sheets were prepared; cell cultures were prepared from primary cell lines. The cells were detached from the cell culture surface with a 0.25% solution of trypsin and resuspended in the growth media. Cells were then counted using a trypan blue (0.4%) solution and a hemocytometer. Various concentrations of cells were layered on the prepared materials. Cell attachment was monitored for various time periods from 5 minutes to 14 days. Attachments were determined by at least two methods. In one, sample materials were removed from culture media and washed 2 times with sterile saline. Cell stains were then applied and total cells on the surface were counted. A second method was to trypsinize the cells off the surface with a trypsin solution and count using the trypan blue method. Representive results of the attachment and outgrowth of endothelial cells on precoated polyvinyl chloride plastic pieces are reported in Table 3. The number of viable cells attached to each piece were determined by trypan blue staining procedures.

Bovine endothelial cells [2] = test: Outgrowth measurement using endothelial cells from a point of origin; format: cell-based; conditions: treated polyvinyl chloride surface

Substance	3-day cell counts (Bovine endothelial cells [1])	7-day cell counts (Bovine endothelial cells [1])	7-day outgrowth (Bovine endothelial cells [2])
ANP-EAC-COL: Human placenta Type IV collagen coupled to ANP-EAC-NOS (photolabeled collagen)	14500	15833	1.0-3.0 mm
BBA-COL: Human placenta Type IV collagen coupled to the NOS ester of benzoylbenzoic acid	5749	21500	2.5-4.0 mm
